Measurements from patent US20180186796A1, “COMPOUNDS AND USES THEREOF” (LEAD DISCOVERY SIENA S.R.L., priority 2014, published 2018).
In brackets after ≈: the same amount, converted by molar mass. Structures can show the parent of a compound that is named as a salt. Where two headings read alike, the source gives them in different places.

Tests used:
Recombinant human Src = target: T1, Recombinant human Src (Homo sapiens, UniProt P12931); test: Enzymatic assay on isolated Src; type: biochemical
T1 construct: purchased Upstate (Lake Placid, N.Y.)
Text: Recombinant human Src was purchased from Upstate (Lake Placid, N.Y.).

[1] = PAMPA, intestinal (GI) permeability; settings: for Papp / Papp at 5 h, 0.5 mM: PAMPA; for Papp: Table 6; for PAMPA GI (MR %): Membrane Retention; for Papp at 5 h, 0.5 mM: pH 7.4
Water solubility assay = settings: for H2O Solubility: Table 6; for solubility at 24 h / solubility thermodynamic at 24 h: water, 20 °C, thermodynamic from solid
Experimental: Each solid compound (1 mg) was added to 1 mL of water. […] The suspensions were filtered through a 0.45 μm nylon filter (Acrodisc), and the solubilized compound determined by LC-MS-MS assay. For each compound the determination was performed in triplicate. […] The flow rate was 0.2 mL min-^−1 and injection volume was 5 μL. The instrument operated in positive mode and parameters were: detector 1850 V, drying gas pressure 25.0 psi, desolvation temperature 300.0° C., nebulizing gas 40.0 psi, needle 5000 V and shield 600 V. Nitrogen was used as nebulizer gas and drying gas.
Solid compound (1 mg) was added to 1 mL of water. […] The suspensions were filtered through a 0.45-μm nylon filter (Acrodisc), and the solubilised compound determined by LC-UV-MS assay. The determination was performed in triplicate.
Chromatographic analysis was performed with the method above reported and quantification of compounds was made by comparison with apposite calibration curves realized with standard solutions in methanol.

Recombinant human Abl = target: T2, Recombinant human Abl (Homo sapiens, UniProt P00519); test: Enzymatic assay on isolated Abl; type: biochemical; settings: mean of at least two experiments
T2 construct: purchased Upstate
Experimental: Recombinant human Abl was purchased from Upstate.
Activity was measured in a filter binding assay using an Abl specific peptide substrate (Abtide, Upstate).

[2] = Microsomal stability assay; settings: for Metabolic Stab.: percentage of unmodified parent drug, human liver microsomes 60 min
recombinant Fyn = recombinant Fyn (Homo sapiens, UniProt P06241); test: Enzymatic assay on isolated Fyn kinase
Experimental: Kinase assays were performed in presence of 200 μM ATP and 100 μM peptide substrate. All inhibition assays were conducted with 0.01 μg active kinase, 0.33 μmol [^γ32P]ATP, 60 mM HEPES-NaOH pH 7.5, 3 μM Na-orthovanadate, 1.2 mM DTT, 50 μg/ml PEG20.0000, 10 mM magnesium acetate, 0.004% NP40 and 10% DMSO in a final volume of 10 μL. Fyn and inhibitors were preincubated in ice for 5 min; after addition of the substrates the reaction was conducted at 30° C. for 10 min. The reaction was stopped by adding 5 μL of 3% phosphoric acid. Aliquots (10 μL) were then transferred into a P30 Filtermat (PerkinElmer), washed five times with 75 mM phosphoric acid and once with acetone for 5 minute. The filter was dried and transferred to a sealable plastic bag, and scintillation cocktail (4 mL) was added. Spotted reactions were read in a MicroBeta Liquid (Perkinelmer) scintillation counter. The ID50 values were obtained according to the following equation:
Ki values toward recombinant Fyn were calculated using the equation:
according to a competitive mechanism of inhibition toward ATP substrate, where [SATP] is the concentration of ATP. Curve fitting was performed with the program GraphPad Prism version 5.00.

PAMPA, BBB permeability = settings: for PAMPA BBB (MR %): Membrane Retention; for Papp at 5 h, 0.5 mM: PAMPA, pH 7.4
[3] = Enzymatic stability in human plasma; type: in vitro ADME; settings: for half-life at 100 μM: human, pooled human plasma diluted with phosphate buffer, pH 7.4
[4] = Stability tests in phosphate buffer and methanol; type: physicochemical; settings: 20° C., 48 h incubation
K562 cells = test: Antiproliferative activity on human cell line K562; type: cell-based; settings: Homo sapiens, K562, read-out: Cellular Data (IC50, μM) K562
Experimental: In vitro experiments were carried out using the human Chronic Myelogeneous Leukemia cell line K562. Cells were purchased from American Type Culture Collection (ATCC, Manassas, Va., USA) and were cultured in RPMI medium supplemented with 10% Foetal Bovine Serum. […] Cell number and vitality were evaluated using the automatic cell counter NucleoCounteri (Chemometec, Denmark). Results from the NucleoCounter represented either total or non-viable cell concentration, depending on the sample preparation indicated by manufacturer.
In vitro experiments were carried out using the human Chronic Myelogeneous Leukemia cell line K562. Cells were purchased from American Type Culture Collection (ATCC, Manassas, Va., USA) and were cultured in RPMI medium supplemented with 10% Foetal Bovine Serum. […] Cell number and vitality were evaluated using the automatic cell counter NucleoCounter® (Chemometec, Denmark). Results from the NucleoCounter represented either total or non-viable cell concentration, depending on the sample preparation indicated by manufacturer.

[5] = read-out: t1/2 in human plasma (converted)
[6] = methanol, read-out: Stability MeOH t1/2
[7] = phosphate buffer, pH 7.4, read-out: Stability PBS pH 7.4 t1/2
[8] = 37° C., read-out: Stability Human Plasma t1/2 (converted)
[9] = mean of at least two experiments, read-out: Enzymatic Data (Ki, μM) c-Src

T1 sequence (P12931 whole entry): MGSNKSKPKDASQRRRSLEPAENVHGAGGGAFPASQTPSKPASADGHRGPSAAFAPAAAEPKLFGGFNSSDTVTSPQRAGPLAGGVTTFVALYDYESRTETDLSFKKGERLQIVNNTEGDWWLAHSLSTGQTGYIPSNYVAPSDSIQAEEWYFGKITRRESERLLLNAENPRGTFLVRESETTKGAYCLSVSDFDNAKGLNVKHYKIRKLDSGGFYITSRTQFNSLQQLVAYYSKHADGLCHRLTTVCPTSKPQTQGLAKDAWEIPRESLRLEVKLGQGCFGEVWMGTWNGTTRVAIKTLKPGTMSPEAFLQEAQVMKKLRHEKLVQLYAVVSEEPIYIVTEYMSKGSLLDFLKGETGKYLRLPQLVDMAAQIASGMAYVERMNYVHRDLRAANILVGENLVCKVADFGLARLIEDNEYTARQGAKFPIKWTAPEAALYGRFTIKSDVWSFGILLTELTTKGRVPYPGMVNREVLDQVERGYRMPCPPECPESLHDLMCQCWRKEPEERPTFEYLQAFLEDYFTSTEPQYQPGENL
T2 sequence (P00519 whole entry): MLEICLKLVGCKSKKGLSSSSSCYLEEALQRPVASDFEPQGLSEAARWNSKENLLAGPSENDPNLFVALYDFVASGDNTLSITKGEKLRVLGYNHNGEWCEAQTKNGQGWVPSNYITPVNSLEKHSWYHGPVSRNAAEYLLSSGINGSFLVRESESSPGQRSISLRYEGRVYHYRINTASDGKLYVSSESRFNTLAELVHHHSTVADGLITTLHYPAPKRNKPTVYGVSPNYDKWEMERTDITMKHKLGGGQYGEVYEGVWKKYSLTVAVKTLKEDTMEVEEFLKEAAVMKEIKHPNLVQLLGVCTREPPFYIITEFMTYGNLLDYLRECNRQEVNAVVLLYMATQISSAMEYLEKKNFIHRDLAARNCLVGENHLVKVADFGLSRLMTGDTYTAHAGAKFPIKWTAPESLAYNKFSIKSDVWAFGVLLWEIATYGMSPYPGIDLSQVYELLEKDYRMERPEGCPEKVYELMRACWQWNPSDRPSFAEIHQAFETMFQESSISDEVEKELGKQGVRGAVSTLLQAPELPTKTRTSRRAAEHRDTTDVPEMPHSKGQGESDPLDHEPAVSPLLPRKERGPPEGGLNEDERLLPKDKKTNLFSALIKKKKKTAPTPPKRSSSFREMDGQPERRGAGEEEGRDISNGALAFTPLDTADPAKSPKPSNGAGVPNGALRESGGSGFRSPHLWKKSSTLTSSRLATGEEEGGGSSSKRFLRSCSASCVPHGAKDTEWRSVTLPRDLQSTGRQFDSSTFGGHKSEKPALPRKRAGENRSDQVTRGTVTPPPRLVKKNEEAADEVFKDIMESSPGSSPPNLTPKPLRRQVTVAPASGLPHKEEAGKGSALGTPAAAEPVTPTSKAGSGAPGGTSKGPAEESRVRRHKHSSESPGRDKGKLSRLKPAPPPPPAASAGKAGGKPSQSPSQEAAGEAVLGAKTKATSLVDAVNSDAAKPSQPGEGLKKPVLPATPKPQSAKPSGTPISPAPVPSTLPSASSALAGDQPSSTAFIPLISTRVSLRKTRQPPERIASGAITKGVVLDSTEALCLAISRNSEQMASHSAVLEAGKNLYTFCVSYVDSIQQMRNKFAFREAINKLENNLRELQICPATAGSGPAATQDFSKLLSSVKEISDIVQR
recombinant Fyn, sequence (P06241 whole entry, looked up): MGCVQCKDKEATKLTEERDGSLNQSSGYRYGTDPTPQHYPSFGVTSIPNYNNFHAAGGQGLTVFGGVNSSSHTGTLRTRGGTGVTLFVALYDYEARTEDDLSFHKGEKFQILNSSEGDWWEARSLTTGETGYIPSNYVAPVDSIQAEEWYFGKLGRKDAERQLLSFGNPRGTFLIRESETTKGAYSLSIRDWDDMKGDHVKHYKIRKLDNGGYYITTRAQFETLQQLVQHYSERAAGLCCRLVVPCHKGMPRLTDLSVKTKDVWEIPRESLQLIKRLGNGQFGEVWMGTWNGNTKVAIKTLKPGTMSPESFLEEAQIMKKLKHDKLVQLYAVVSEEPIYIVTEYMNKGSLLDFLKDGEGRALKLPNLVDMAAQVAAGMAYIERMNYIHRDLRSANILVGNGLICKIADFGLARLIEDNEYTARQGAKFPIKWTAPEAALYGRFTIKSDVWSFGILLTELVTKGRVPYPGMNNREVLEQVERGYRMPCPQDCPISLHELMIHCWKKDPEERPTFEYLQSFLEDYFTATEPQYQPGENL

Structure (SMILES) | Ki (Recombinant human Abl) [µM] | melting point [°C] | PAMPA BBB (MR %) (PAMPA, BBB permeability) | Papp at 5 h, 0.5 mM (PAMPA, BBB permeability) [×10⁻⁶ cm/s] | PAMPA GI (MR %) [1] | Papp at 5 h, 0.5 mM [1] [×10⁻⁶ cm/s] | solubility at 24 h (Water solubility assay) [µM] | solubility thermodynamic at 24 h (Water solubility assay) [µg/mL] | half-life at 500 μM [4, 6] [h] | half-life at 500 μM [4, 7] [h] | other results
CSc1nc(Nc2cccc(O)c2)c2cnn(CC(Cl)c3ccccc3)c2n1 (centres unmarked) [Si322] | 0.15 |  |  |  |  |  |  |  |  |  | Ki (Recombinant human Src; read-out: Ki c-Src): 0.03 µM; Papp [1]: 5.92 10^−6 cm/sec; H2O Solubility (Water solubility assay): 4.3 µg/mL; Metabolic Stab. [2]: 98%
Nc1ncnc2c1c(-c1ccccc1)nn2CC(Cl)c1ccccc1 (centres unmarked) (as salt: hydrochloride) [Si244, 1-(2-Chloro-2-phenylethyl)-3-phenyl-1H-pyrazolo[3,4-d]pyrimidin-4-amine hydrochloride] |  | 129 to 132 |  |  |  |  |  |  |  |  | 
Cc1ccc(-c2nn(CC(C)c3ccccc3)c3ncnc(N)c23)cc1 (centres unmarked) [Si338, 3-(4-Methylphenyl)-1-(2-phenylpropyl)-1H-pyrazolo[3,4-d]pyrimidin-4-amine] |  | 152 to 155 |  |  |  |  |  |  |  |  | decreased Fyn activity on substitution of chlorine by methyl in N1 side chain (recombinant Fyn; Si312 vs Si244, Si337 vs Si308, Si338 vs Si309): about 10 fold; Ki (recombinant Fyn; read-out: Ki Fyn): 0.995 µM
CCC(C)Sc1nc(NCCc2ccccc2)c2cnn(CC(Cl)c3ccccc3)c2n1 (centres unmarked) [Si147, 6-(Sec-butylthio)-1-(2-chloro-2-phenylethyl)-N-(2-phenylethyl)-1H-pyrazolo[3,4-d]pyrimidin-4-amine] |  | 97 to 98 |  |  |  |  |  |  |  |  | 
CC(Cn1nc(-c2ccccc2)c2c(N)ncnc21)c1ccccc1 (centres unmarked) [Si312, 3-Phenyl-1-(2-phenylpropyl)-1H-pyrazolo[3,4-d]pyrimidin-4-amine] |  | 105 to 109 |  |  |  |  |  |  |  |  | decreased Fyn activity on substitution of chlorine by methyl in N1 side chain (recombinant Fyn): about 10 fold
CC(C)Sc1nc(Nc2cccc(O)c2)c2cnn(CC(Cl)c3ccccc3)c2n1 (centres unmarked) [Si323] | 0.12 |  |  |  |  |  |  |  |  |  | Ki (Recombinant human Src; read-out: Ki c-Src): 0.01 µM; Papp [1]: 4.53 10^−6 cm/sec; H2O Solubility (Water solubility assay): 0.9 µg/mL; Metabolic Stab. [2]: 95%
Fc1ccc(CCn2ncc3c(Nc4cccc(Cl)c4)nc(SCCN4CCOCC4)nc32)cc1 [Si327, N-(3-Chlorophenyl)-1-[2-(4-fluorophenyl)ethyl]-6-[(2-morpholin-1-ylethyl)thio]-1H-pyrazolo[3,4-d]pyrimidin-4-amine] |  | 127 to 128 |  |  |  |  |  |  |  |  | Ki (Recombinant human Src; read-out: Ki c-Src): ~0.1 µM
CSc1nc(N(C(=O)OC(C)CN2CCN(C)CC2)c2cccc(Br)c2)c2cnn(CC(C)c3ccccc3)c2n1 (centres unmarked) [proSi278 (B), 1-(4-Methylpiperazin-1-yl)propan-2-yl (3-bromophenyl)(6-(methylthio)-1-(2-phenylpropyl)-1H-pyrazolo[3,4-d]pyrimidin-4-yl)carbamate] |  |  | (70.6) % | 2.39 | (73.3) % | 2.15 | 5.37 (≈ 3.43 µg/mL) | 3.4 (≈ 5.32 µM) | > 48 | > 48 | Stability Human Plasma t1/2 ([3]; 37° C.): 10.40 h; half-life at 100 μM [3, 5]: 10.4 h
CN1CCN(CCOC(=O)N(Cc2ccccc2Cl)c2ncnc3c2cnn3CC(Cl)c2ccc(Br)cc2)CC1 (centres unmarked) [proSi221, 2-(4-Methylpiperazin-1-yl)ethyl (1-(2-(4-bromophenyl)-2-chloroethyl)-1H-pyrazolo[3,4-d]pyrimidin-4-yl)(2-chlorobenzyl)carbamate] |  |  | (79.4) % | 1.92 | (78.1) % | 2.38 | 3.09 (≈ 2 µg/mL) | 1.95 (≈ 3.01 µM) | > 48 | > 48 | half-life at 100 μM [3, 8]: > 48 h
Nc1ncnc2c1c(-c1ccc(F)cc1)nn2CC(Cl)c1ccccc1 (centres unmarked) [Si310, 1-(2-Chloro-2-phenylethyl)-3-(4-fluorophenyl)-1H-pyrazolo[3,4-d]pyrimidin-4-amine] |  | 203 to 206 |  |  |  |  |  |  |  |  | Ki (recombinant Fyn; read-out: Enzymatic Data (Ki, μM) Fyn): 0.36 µM; IC50 (K562 cells): 12.6 ± 14.8 µM
CCC(C)Sc1nc(NCc2ccccc2)c2cnn(CC(Cl)c3ccccc3)c2n1 (centres unmarked) [Si146, N-benzyl-6-(sec-butylthio)-1-(2-chloro-2-phenylethyl)-1H-pyrazolo[3,4-d]pyrimidin-4-amine] |  | 112 to 113 |  |  |  |  |  |  |  |  | 
CC(=O)c1ccc(-c2nn(CC(C)c3ccccc3)c3ncnc(N)c23)cc1 (centres unmarked) [Si336, 1-{4-[4-Amino-1-(2-phenylpropyl)-1H-pyrazolo[3,4-d]pyrimidin-3-yl]phenyl}ethanone] |  | 232 to 235 |  |  |  |  |  |  |  |  | 
CSc1nc(N(C(=O)OCCN2CCN(C)CC2)c2cccc(Cl)c2)c2cnn(CC(Cl)c3ccccc3)c2n1 (centres unmarked) [proSi83, 2-(4-Methylpiperazin-1-yl)ethyl (1-(2-chloro-2-phenylethyl)-6-(methylthio)-1H-pyrazolo[3,4-d]pyrimidin-4-yl)(3-chlorophenyl)carbamate] |  |  | (47.0) % | 4.14 | (44.7) % | 4.95 | 7.08 (≈ 4.25 µg/mL) | 4.22 (≈ 7.03 µM) | > 48 | > 48 | half-life at 100 μM [3, 8]: 3.28 h
CN1CCN(CCOC(=O)N(Cc2ccccc2)c2ncnc3c2cnn3CC(Cl)c2ccccc2)CC1 (centres unmarked) [proS13, 2-(4-Methylpiperazin-1-yl)ethyl benzyl(1-(2-chloro-2-phenylethyl)-1H-pyrazolo[3,4-d]pyrimidin-4-yl)carbamate] |  |  | (45.6) % | 5.01 | (40.1) % | 6.7 | 35.5 (≈ 18.9 µg/mL) | 18.8 (≈ 35.2 µM) | > 48 | > 48 | half-life at 100 μM [3, 8]: > 48 h; Metabolic Stab. % ([2]; percentage of unmodified drug, Table 8): 86.4%
Clc1cccc(Nc2nc(SC3CCCC3)nc3c2cnn3CC(Cl)c2ccccc2)c1 (centres unmarked) | > 100 |  |  |  |  |  |  |  |  |  | Ki (Recombinant human Src): > 100 µM; Ki (recombinant Fyn): > 100 µM
CCC(CN1CCN(C)CC1)OC(=O)N(c1cccc(Br)c1)c1nc(SC)nc2c1cnn2CC(C)c1ccccc1 (centres unmarked) [proSi278 (C), 1-(4-Methylpiperazin-1-yl)butan-2-yl (3-bromophenyl)(6-(methylthio)-1-(2-phenylpropyl)-1H-pyrazolo[3,4-d]pyrimidin-4-yl)carbamate] |  |  | (91.4) % | 0.93 | (88.1) % | 1.45 | 3.02 (≈ 1.97 µg/mL) | 1.96 (≈ 3 µM) | > 48 | > 48 | Stability Human Plasma t1/2 ([3]; 37° C.): 11.31 h; half-life at 100 μM [3, 5]: 11.3 h
Oc1cccc(Nc2nc(SC3CCCC3)nc3c2cnn3CC(Cl)c2ccccc2)c1 (centres unmarked) [Si330] | 0.15 |  |  |  |  |  |  |  |  |  | Ki (Recombinant human Src; read-out: Ki c-Src): 0.007 µM; Papp [1]: 3.91 10^−6 cm/sec; H2O Solubility (Water solubility assay): 0.6 µg/mL; Metabolic Stab. [2]: 91%
Fc1cccc(Nc2nc(SC3CCCC3)nc3c2cnn3CC(Cl)c2ccccc2)c1 (centres unmarked) [drawing 179] | > 100 |  |  |  |  |  |  |  |  |  | Ki (Recombinant human Src; [9]): 0.11 µM; Papp [1]: 14 10^−6 cm/sec; Metabolic Stab. [2]: 95%
Clc1cccc(Nc2nc(SCCN3CCOCC3)nc3c2cnn3CC(Cl)c2ccccc2)c1 (centres unmarked) [Si181, 1-(2-chloro-2-phenylethyl)-N-(3-chlorophenyl)-6-((2-morpholinoethyl)thio)-1H-pyrazolo[3,4-d]pyrimidin-4-amine, reference compound] | 0.12 |  |  |  |  |  |  |  |  |  | Ki (Recombinant human Src; [9]): 0.19 µM; Papp [1]: 9.5 10^−6 cm/sec; H2O Solubility (Water solubility assay): 0.1 µg/mL; Metabolic Stab. [2]: 95%
CSc1nc(N(CCc2ccccc2)C(=O)OCCN2CCN(C)CC2)c2cnn(CC(Cl)c3ccccc3)c2n1 (centres unmarked) [proSi35, 2-(4-methylpiperazin-1-yl)ethyl (1-(2-chloro-2-phenylethyl)-6-(methylthio)-1H-pyrazolo[3,4-d]pyrimidin-4-yl)(phenethyl)carbamate] |  |  | (88.8) % | 0.01 | (86.1) % | 0.85 | 182 (≈ 108 µg/mL) | 107 (≈ 180 µM) | > 48 | > 48 | half-life at 100 μM [3, 8]: 35.3 h
